Measured values from article PMC5218480 (PLoS ONE, 2017).

Test system: MV-4-11 cells
Assay: Gene expression microarray analysis (Affymetrix PrimeView) and GSEA
Assay type: cell-based, human
Parameters: RFU PODN (11730768_x_at) / Fold change /veh PODN (11730768_x_at) / RFU LINC00158 (11744669_a_at) / Fold change /veh LINC00158 (11744669_a_at) / RFU DUSP10 (11751237_a_at) / Fold change /veh DUSP10 (11751237_a_at) / RFU ID3 (11757404_x_at) / Fold change /veh ID3 (11757404_x_at) / RFU PLEKHG5 (11737974_s_at) / Fold change /veh PLEKHG5 (11737974_s_at) / RFU LRRC4B (11730491_at) / Fold change /veh LRRC4B (11730491_at) / RFU GIMAP4 (11747438_a_at) / Fold change /veh GIMAP4 (11747438_a_at) / RFU KRT8 (11758183_x_at) / Fold change /veh KRT8 (11758183_x_at) / RFU CNN1 (11734310_a_at) / Fold change /veh CNN1 (11734310_a_at) / RFU VPS37D (11726825_at) / Fold change /veh VPS37D (11726825_at) / RFU C10orf10 (11716522_x_at) / Fold change /veh C10orf10 (11716522_x_at) / RFU KIR2DL2 /// KIR2DL4 /// KIR2DL5A /// KIR2DL5B /// KIR2DS1 /// KIR2DS2 /// KIR2DS3 /// KIR2DS4 /// KIR3DL3 /// KIR3DL3 /// KIR3DS1 (11738374_at) / Fold change /veh KIR2DL2 /// KIR2DL4 /// KIR2DL5A /// KIR2DL5B /// KIR2DS1 /// KIR2DS2 /// KIR2DS3 /// KIR2DS4 /// KIR3DL3 /// KIR3DL3 /// KIR3DS1 (11738374_at) / RFU C1QL1 (11718748_at) / Fold change /veh C1QL1 (11718748_at) / RFU TMPRSS4 (11747572_a_at) / Fold change /veh TMPRSS4 (11747572_a_at) / RFU HAMP (11756126_x_at) / Fold change /veh HAMP (11756126_x_at) / RFU RNFT2 (11725882_a_at) / Fold change /veh RNFT2 (11725882_a_at) / RFU NR4A2 (11747474_a_at) / Fold change /veh NR4A2 (11747474_a_at) / RFU ABCC12 (11746883_a_at) / Fold change /veh ABCC12 (11746883_a_at) / RFU TMEM136 (11760407_x_at) / Fold change /veh TMEM136 (11760407_x_at) / RFU CLDN22 /// WWC2 (11732394_at) / Fold change /veh CLDN22 /// WWC2 (11732394_at) / RFU HLA-DPB1 (11760878_x_at) / Fold change /veh HLA-DPB1 (11760878_x_at) / RFU SPINT1 (11716480_a_at) / Fold change /veh SPINT1 (11716480_a_at) / RFU GAP43 (11754022_s_at) / Fold change /veh GAP43 (11754022_s_at) / RFU A4GNT (11735810_at) / Fold change /veh A4GNT (11735810_at) / RFU PRB3 (11715151_x_at) / Fold change /veh PRB3 (11715151_x_at) / RFU TUBB4B (11761932_at) / Fold change /veh TUBB4B (11761932_at) / RFU CAPN14 (11732068_a_at) / Fold change /veh CAPN14 (11732068_a_at) / RFU TMCC2 (11721928_a_at) / Fold change /veh TMCC2 (11721928_a_at) / RFU IRGQ (11745062_a_at) / Fold change /veh IRGQ (11745062_a_at) / RFU FAM174B (11720279_a_at) / Fold change /veh FAM174B (11720279_a_at) / RFU TMPRSS4 (11748680_a_at) / Fold change /veh TMPRSS4 (11748680_a_at) / RFU FAM212B (11763350_a_at) / Fold change /veh FAM212B (11763350_a_at) / RFU PLEKHG5 (11743358_a_at) / Fold change /veh PLEKHG5 (11743358_a_at) / RFU ZSCAN30 (11745921_a_at) / Fold change /veh ZSCAN30 (11745921_a_at) / RFU CMKLR1 (11741424_a_at) / Fold change /veh CMKLR1 (11741424_a_at) / RFU LOC101060620 /// MAPK8IP1 (11723275_at) / Fold change /veh LOC101060620 /// MAPK8IP1 (11723275_at) / RFU SPTSSB (11747773_x_at) / Fold change /veh SPTSSB (11747773_x_at) / RFU PRSS12 (11739890_at) / Fold change /veh PRSS12 (11739890_at) / RFU BIN1 (11741810_x_at) / Fold change /veh BIN1 (11741810_x_at) / RFU WNT11 (11732464_a_at) / Fold change /veh WNT11 (11732464_a_at) / RFU C10orf10 (11716521_a_at) / Fold change /veh C10orf10 (11716521_a_at) / RFU C5orf56 (11738089_at) / Fold change /veh C5orf56 (11738089_at) / RFU CYB561 (11721691_x_at) / Fold change /veh CYB561 (11721691_x_at) / RFU ANKRD19P (11752326_a_at) / Fold change /veh ANKRD19P (11752326_a_at) / RFU OR2T12 /// OR2T33 /// OR2T8 (11738714_s_at) / Fold change /veh OR2T12 /// OR2T33 /// OR2T8 (11738714_s_at) / RFU VCAN (11748164_a_at) / Fold change /veh VCAN (11748164_a_at) / RFU JSRP1 (11732532_at) / Fold change /veh JSRP1 (11732532_at) / RFU KRTAP10-11 (11738290_x_at) / Fold change /veh KRTAP10-11 (11738290_x_at) / RFU MYO3A (11730013_a_at) / Fold change /veh MYO3A (11730013_a_at) / RFU EBF3 (11725865_a_at) / Fold change /veh EBF3 (11725865_a_at) / RFU CAMK2N1 (11719241_x_at) / Fold change /veh CAMK2N1 (11719241_x_at) / RFU C5orf56 (11738088_a_at) / Fold change /veh C5orf56 (11738088_a_at) / RFU OLFML3 (11715873_a_at) / Fold change /veh OLFML3 (11715873_a_at) / RFU LOC100653217 /// NTM (11731650_a_at) / Fold change /veh LOC100653217 /// NTM (11731650_a_at) / RFU MAPK11 (11762145_a_at) / Fold change /veh MAPK11 (11762145_a_at) / RFU FIZ1 (11724087_x_at) / Fold change /veh FIZ1 (11724087_x_at) / RFU OASL (11726364_x_at) / Fold change /veh OASL (11726364_x_at) / RFU SOX15 (11748057_x_at) / Fold change /veh SOX15 (11748057_x_at) / RFU CD79A (11719716_a_at) / Fold change /veh CD79A (11719716_a_at) / RFU HIST1H1D (11736915_at) / Fold change /veh HIST1H1D (11736915_at) / RFU CASKIN2 (11723855_a_at) / Fold change /veh CASKIN2 (11723855_a_at) / RFU LOC730098 (11760151_x_at) / Fold change /veh LOC730098 (11760151_x_at) / RFU OR4N2 (11742367_at) / Fold change /veh OR4N2 (11742367_at) / RFU PRRT2 (11749266_a_at) / Fold change /veh PRRT2 (11749266_a_at) / RFU SNX32 (11753110_a_at) / Fold change /veh SNX32 (11753110_a_at) / RFU CDHR5 (11726645_a_at) / Fold change /veh CDHR5 (11726645_a_at) / RFU RCAN1 (11760418_a_at) / Fold change /veh RCAN1 (11760418_a_at) / RFU FAM167A (11723789_a_at) / Fold change /veh FAM167A (11723789_a_at) / RFU FAM26E (11764081_at) / Fold change /veh FAM26E (11764081_at) / RFU ISYNA1 (11749810_s_at) / Fold change /veh ISYNA1 (11749810_s_at) / RFU ACY1 (11761880_at) / Fold change /veh ACY1 (11761880_at) / RFU 11764098_at / Fold change /veh 11764098_at / RFU SAMD14 (11745864_x_at) / Fold change /veh SAMD14 (11745864_x_at) / RFU NPB (11741838_a_at) / Fold change /veh NPB (11741838_a_at) / RFU TMPRSS6 (11731388_a_at) / Fold change /veh TMPRSS6 (11731388_a_at) / RFU KRTAP10-2 (11738614_at) / Fold change /veh KRTAP10-2 (11738614_at) / RFU ARHGAP8 /// PRR5-ARHGAP8 (11727945_x_at) / Fold change /veh ARHGAP8 /// PRR5-ARHGAP8 (11727945_x_at) / RFU KRTAP5-7 /// NADSYN1 (11734609_at) / Fold change /veh KRTAP5-7 /// NADSYN1 (11734609_at) / RFU RASL12 (11751679_a_at) / Fold change /veh RASL12 (11751679_a_at) / RFU CDKN2B (11736163_a_at) / Fold change /veh CDKN2B (11736163_a_at) / RFU PRF1 (11729649_at) / Fold change /veh PRF1 (11729649_at) / RFU, ZNF638 /// ZNF638-IT1 / Fold change vs veh, ZNF638 /// ZNF638-IT1 / RFU, PANK3 / Fold change vs veh, PANK3 / RFU, SH3YL1 / Fold change vs veh, SH3YL1 / RFU, ZEB2 / Fold change vs veh, ZEB2 / RFU, NRIP1 / Fold change vs veh, NRIP1 / RFU, PTTG1IP / Fold change vs veh, PTTG1IP / RFU, CAPN2 / Fold change vs veh, CAPN2 / RFU, MED14 / Fold change vs veh, MED14 / RFU, SNORA58 / Fold change vs veh, SNORA58 / RFU, C1orf63 / Fold change vs veh, C1orf63 / RFU, LRRFIP1 / Fold change vs veh, LRRFIP1 / RFU, NDUFAF7 / Fold change vs veh, NDUFAF7 / RFU, SLC12A2 / Fold change vs veh, SLC12A2 / RFU, IBTK / Fold change vs veh, IBTK / RFU, ESF1 / Fold change vs veh, ESF1 / Fold change vs veh, TMEM50B / RFU, TAOK1 / Fold change vs veh, TAOK1 / RFU, ACBD3 / Fold change vs veh, ACBD3 / RFU, TMA16 / Fold change vs veh, TMA16 / RFU, RWDD3 / Fold change vs veh, RWDD3 / RFU, BCAT1 / Fold change vs veh, BCAT1 / RFU, EDEM3 / Fold change vs veh, EDEM3 / RFU, TMEM33 / Fold change vs veh, TMEM33 / RFU, WDR75 / Fold change vs veh, WDR75 / RFU, AHCTF1 / Fold change vs veh, AHCTF1 / RFU, TFRC / Fold change vs veh, TFRC / RFU, ZDHHC17 / Fold change vs veh, ZDHHC17 / RFU, NOM1 / Fold change vs veh, NOM1 / RFU, ARL8B / Fold change vs veh, ARL8B / RFU, ZBTB11 / Fold change vs veh, ZBTB11 / RFU, TAMM41 / Fold change vs veh, TAMM41 / RFU, KIAA1704 /// LOC100996395 / Fold change vs veh, KIAA1704 /// LOC100996395 / RFU, ING1 / Fold change vs veh, ING1 / RFU, TRMT61B / Fold change vs veh, TRMT61B / RFU, FUBP3 / Fold change vs veh, FUBP3 / RFU, TP53 / Fold change vs veh, TP53 / RFU, TNKS2 / Fold change vs veh, TNKS2 / RFU, ZFP14 / Fold change vs veh, ZFP14 / RFU, ACTR2 / Fold change vs veh, ACTR2 / RFU, PPP3R1 / Fold change vs veh, PPP3R1 / RFU, PIK3R1 / Fold change vs veh, PIK3R1 / RFU, HNRNPA1 / Fold change vs veh, HNRNPA1 / RFU, RNF170 / Fold change vs veh, RNF170 / RFU, ZNF28 / Fold change vs veh, ZNF28 / RFU, RNGTT / Fold change vs veh, RNGTT / RFU, OGT / Fold change vs veh, OGT / RFU, BRD1 / Fold change vs veh, BRD1 / RFU, MARS / Fold change vs veh, MARS / RFU, ZNF655 / Fold change vs veh, ZNF655 / RFU, FAHD1 / Fold change vs veh, FAHD1 / RFU, BDP1 / Fold change vs veh, BDP1 / RFU, LRRCC1 / Fold change vs veh, LRRCC1 / RFU, ARID1A / Fold change vs veh, ARID1A / RFU, ZNF146 / Fold change vs veh, ZNF146 / RFU, ZNF330 / Fold change vs veh, ZNF330 / RFU, GPN3 / Fold change vs veh, GPN3 / RFU, C9orf123 / Fold change vs veh, C9orf123 / RFU, N4BP2L2 / Fold change vs veh, N4BP2L2 / RFU, ARFIP1 / Fold change vs veh, ARFIP1 / RFU, FAM179B / Fold change vs veh, FAM179B / RFU, BCL10 / Fold change vs veh, BCL10 / RFU, UHRF1BP1L / Fold change vs veh, UHRF1BP1L / RFU, BET1 / Fold change vs veh, BET1 / RFU, CNOT2 / Fold change vs veh, CNOT2 / RFU, ZNF268 / Fold change vs veh, ZNF268 / Fold change vs veh, ZNF507 / RFU, DGCR2 / Fold change vs veh, DGCR2 / RFU, WDSUB1 / Fold change vs veh, WDSUB1 / Fold change vs veh, HSP90B1 /// MIR3652 / RFU, ADSS / Fold change vs veh, ADSS / RFU, GK / Fold change vs veh, GK / RFU, ZNF148 / Fold change vs veh, ZNF148 / RFU, TAF9 / Fold change vs veh, TAF9 / RFU, SLC1A5 / Fold change vs veh, SLC1A5 / RFU, SLMO2 / Fold change vs veh, SLMO2 / RFU, ABCC4 / Fold change vs veh, ABCC4 / RFU, LOC101060439 /// RAP1B / Fold change vs veh, LOC101060439 /// RAP1B / RFU, RFX7 / Fold change vs veh, RFX7 / RFU, GTPBP10 / Fold change vs veh, GTPBP10 / RFU, CNEP1R1 / Fold change vs veh, CNEP1R1 / RFU, BIVM-ERCC5 /// ERCC5 / Fold change vs veh, BIVM-ERCC5 /// ERCC5 / RFU, ILF3 / Fold change vs veh, ILF3 / RFU 11762660_at / Fold change /veh 11762660_at / RFU VCAN (11757783_s_at) / Fold change /veh VCAN (11757783_s_at) / RFU DDX43 (11728927_at) / Fold change /veh DDX43 (11728927_at) / RFU KRT8 (11758188_x_at) / Fold change /veh KRT8 (11758188_x_at) / RFU NKD1 (11759106_at) / Fold change /veh NKD1 (11759106_at) / RFU SRD5A1 (11742802_a_at) / Fold change /veh SRD5A1 (11742802_a_at) / RFU TPSAB1 /// TPSB2 (11721975_s_at) / Fold change /veh TPSAB1 /// TPSB2 (11721975_s_at) / RFU GSTM3 (11746129_a_at) / Fold change /veh GSTM3 (11746129_a_at) / RFU IL23R (11737362_x_at) / Fold change /veh IL23R (11737362_x_at) / RFU TMEM51 (11727254_a_at) / Fold change /veh TMEM51 (11727254_a_at) / RFU PIWIL2 (11732686_x_at) / Fold change /veh PIWIL2 (11732686_x_at) / RFU ORM1 (11744905_x_at) / Fold change /veh ORM1 (11744905_x_at) / RFU CCDC152 (11743942_at) / Fold change /veh CCDC152 (11743942_at) / RFU ECM1 (11717891_a_at) / Fold change /veh ECM1 (11717891_a_at) / RFU IL23R (11748794_a_at) / Fold change /veh IL23R (11748794_a_at) / RFU TNFAIP8L3 (11732012_x_at) / Fold change /veh TNFAIP8L3 (11732012_x_at) / RFU MBOAT4 (11741988_at) / Fold change /veh MBOAT4 (11741988_at) / RFU 11764193_at / Fold change /veh 11764193_at / RFU TMEM53 (11763286_at) / Fold change /veh TMEM53 (11763286_at) / RFU MAGEB2 (11727129_at) / Fold change /veh MAGEB2 (11727129_at) / RFU TMEM200A (11744735_a_at) / Fold change /veh TMEM200A (11744735_a_at) / RFU CCDC152 (11751479_a_at) / Fold change /veh CCDC152 (11751479_a_at) / RFU FAM211A (11726209_a_at) / Fold change /veh FAM211A (11726209_a_at) / RFU RGS16 (11746705_a_at) / Fold change /veh RGS16 (11746705_a_at) / RFU VCAN (11755009_s_at) / Fold change /veh VCAN (11755009_s_at) / RFU RHOB (11743442_s_at) / Fold change /veh RHOB (11743442_s_at) / RFU RGS16 (11720943_a_at) / Fold change /veh RGS16 (11720943_a_at) / RFU RGS16 (11720944_at) / Fold change /veh RGS16 (11720944_at) / RFU, VPS4B / Fold change vs veh, VPS4B / RFU, CREB1 / Fold change vs veh, CREB1 / RFU, DNAJC13 / Fold change vs veh, DNAJC13 / RFU, GNAQ / Fold change vs veh, GNAQ / RFU, CDK5R1 / Fold change vs veh, CDK5R1 / RFU, ZRANB3 / Fold change vs veh, ZRANB3 / RFU, CUL4A / Fold change vs veh, CUL4A / RFU, CCNY / Fold change vs veh, CCNY / RFU, UFL1 / Fold change vs veh, UFL1 / RFU, COG3 / Fold change vs veh, COG3 / RFU, DIAPH2 / Fold change vs veh, DIAPH2 / RFU, SKA2 / Fold change vs veh, SKA2 / RFU, AFF3 / Fold change vs veh, AFF3 / RFU, LMF1 / Fold change vs veh, LMF1 / RFU, IPO11 / Fold change vs veh, IPO11 / RFU, DFFB / Fold change vs veh, DFFB / RFU, FOXP1 / Fold change vs veh, FOXP1 / RFU, CARD8 / Fold change vs veh, CARD8 / RFU, STRN3 / Fold change vs veh, STRN3 / RFU, ADK / Fold change vs veh, ADK / RFU, RASSF2 / Fold change vs veh, RASSF2 / RFU, WIPF1 / Fold change vs veh, WIPF1 / RFU, LARP1B / Fold change vs veh, LARP1B / RFU, RASA1 / Fold change vs veh, RASA1 / RFU, RB1 / Fold change vs veh, RB1 / RFU, PPFIA1 / Fold change vs veh, PPFIA1 / RFU, MAT2A / Fold change vs veh, MAT2A / RFU, CCT5 / Fold change vs veh, CCT5 / RFU, WDR92 / Fold change vs veh, WDR92 / RFU, CUX1 / Fold change vs veh, CUX1 / RFU, TTC7A / Fold change vs veh, TTC7A / RFU, TMEM135 / Fold change vs veh, TMEM135 / RFU, DEPTOR / Fold change vs veh, DEPTOR / RFU, CPM / Fold change vs veh, CPM / RFU, DNAJB6 / Fold change vs veh, DNAJB6 / RFU, CACNA2D3 / Fold change vs veh, CACNA2D3 / RFU, DTX4 / Fold change vs veh, DTX4 / RFU, TFCP2 / Fold change vs veh, TFCP2 / RFU, GMCL1 /// GMCL1P1 / Fold change vs veh, GMCL1 /// GMCL1P1 / RFU, AEBP2 / Fold change vs veh, AEBP2 / RFU, SNHG1 /// SNORD22 /// SNORD25 /// SNORD26 /// SNORD27 /// SNORD28 /// SNORD29 /// SNORD31 / Fold change vs veh, SNHG1 /// SNORD22 /// SNORD25 /// SNORD26 /// SNORD27 /// SNORD28 /// SNORD29 /// SNORD31 / Fold change (Aza/veh), C12orf56 (ProbeSet 11735607_a_at) / Fold change (ACY-1035/veh), C12orf56 (ProbeSet 11735607_a_at) / Fold change (Aza/veh), FGFR1OP (ProbeSet 11751329_s_at) / Fold change (ACY-1035/veh), FGFR1OP (ProbeSet 11751329_s_at) / Fold change (Aza/veh), VPS36 (ProbeSet 11739960_a_at) / Fold change (ACY-1035/veh), VPS36 (ProbeSet 11739960_a_at) / RFU SYPL1 (11715823_x_at) / Fold change /veh SYPL1 (11715823_x_at) / RFU IGFBP7 (11715501_s_at) / Fold change /veh IGFBP7 (11715501_s_at) / RFU REEP3 (11722064_at) / Fold change /veh REEP3 (11722064_at) / RFU IGLL1 (11728026_x_at) / Fold change /veh IGLL1 (11728026_x_at): dose or concentration left out as unconfirmed
Details: ProbeSet 11731583_a_at; LIST D

Nc1ncn([C@@H]2O[C@H](CO)[C@@H](O)[C@H]2O)c(=O)n1 [azacitidine]
RFU, LARP1B: 75.03 RFU
